# Patent US20240132473A1, “SULFOXIMIDE SUBSTITUTED INDAZOLE IRAK4 KINASE INHIBITOR, PREPARATION METHOD THEREOF AND USE THEREOF” (Shanghai Xunhe Pharmaceutical Technology Co. Ltd., priority 2021, published 2024)
# Legend:
# [1] = test system: TNF-α secretion in THP-1 cells; assay: Inhibition of LPS-stimulated TNF-α secretion in THP-1 cells (ELISA); assay type: cell-based; settings: Homo sapiens, LPS 1 μg/mL, 4.5 hours
# Procedure: TNF-α is a key cytokine involved in the inflammatory process of the listed autoimmune disease, such as rheumatoid arthritis, psoriatic arthritis, ankylosing spondylitis, psoriasis, Crohn's disease, ulcerative colitis, etc. In this test, TNF-α secretion was triggered by incubation with bacterial lipopolysaccharides (LPS). […] The 96-well plate was rotated at 2000 rpm for 5 minutes, and then 50 μL of supernatant was taken. The content of TNF-α in the supernatant was determined by human ELISA kit, and IC50 value of the compound was calculated by XL-Fit (table 4).
# IRAK4 kinase = IRAK4 kinase (Homo sapiens (Human), UniProt Q9NWZ3); assay: IRAK4 kinase inhibitory activity assay (mobility shift assay, Km ATP); assay type: biochemical; settings: MSA, ATP 37 μM (Km ATP)
# Sequence of IRAK4 kinase (Q9NWZ3 whole entry): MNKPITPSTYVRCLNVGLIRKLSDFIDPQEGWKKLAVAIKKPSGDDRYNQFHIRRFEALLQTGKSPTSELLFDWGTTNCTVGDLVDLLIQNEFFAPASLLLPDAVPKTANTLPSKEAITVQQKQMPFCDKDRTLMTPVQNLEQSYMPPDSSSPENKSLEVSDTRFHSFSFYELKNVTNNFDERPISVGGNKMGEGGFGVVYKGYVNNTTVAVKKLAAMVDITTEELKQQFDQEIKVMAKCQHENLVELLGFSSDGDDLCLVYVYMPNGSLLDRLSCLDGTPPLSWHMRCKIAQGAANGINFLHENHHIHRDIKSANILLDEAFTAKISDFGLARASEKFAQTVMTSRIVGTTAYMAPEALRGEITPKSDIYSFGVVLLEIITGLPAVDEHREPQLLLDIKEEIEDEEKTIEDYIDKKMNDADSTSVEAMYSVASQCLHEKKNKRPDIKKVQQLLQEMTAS
# Procedure: The inhibitory activity (IC50) of the compound on IRAK4 kinase under Km ATP was detected by mobility shift assay (MSA). Ten drug concentration gradients were set (initial concentration 1 μM, 3-fold dilution, 2 duplicate wells per concentration). […] After incubation at 28° C. for a period of time, 10 μL of termination buffer was added to terminate the reaction. The conversion rate data was read with Caliper, and then the conversion rate was converted into inhibition rate data. According to the inhibition rate data of each concentration, the IC50 of half inhibitory concentration was calculated by Logit method (Table 3).
# hERG potassium channel = hERG potassium channel (Homo sapiens (Human), UniProt Q12809); assay: cell-based; settings: for Inhibition rate (%) of hERG current: human
# Sequence of hERG potassium channel (Q12809 whole entry): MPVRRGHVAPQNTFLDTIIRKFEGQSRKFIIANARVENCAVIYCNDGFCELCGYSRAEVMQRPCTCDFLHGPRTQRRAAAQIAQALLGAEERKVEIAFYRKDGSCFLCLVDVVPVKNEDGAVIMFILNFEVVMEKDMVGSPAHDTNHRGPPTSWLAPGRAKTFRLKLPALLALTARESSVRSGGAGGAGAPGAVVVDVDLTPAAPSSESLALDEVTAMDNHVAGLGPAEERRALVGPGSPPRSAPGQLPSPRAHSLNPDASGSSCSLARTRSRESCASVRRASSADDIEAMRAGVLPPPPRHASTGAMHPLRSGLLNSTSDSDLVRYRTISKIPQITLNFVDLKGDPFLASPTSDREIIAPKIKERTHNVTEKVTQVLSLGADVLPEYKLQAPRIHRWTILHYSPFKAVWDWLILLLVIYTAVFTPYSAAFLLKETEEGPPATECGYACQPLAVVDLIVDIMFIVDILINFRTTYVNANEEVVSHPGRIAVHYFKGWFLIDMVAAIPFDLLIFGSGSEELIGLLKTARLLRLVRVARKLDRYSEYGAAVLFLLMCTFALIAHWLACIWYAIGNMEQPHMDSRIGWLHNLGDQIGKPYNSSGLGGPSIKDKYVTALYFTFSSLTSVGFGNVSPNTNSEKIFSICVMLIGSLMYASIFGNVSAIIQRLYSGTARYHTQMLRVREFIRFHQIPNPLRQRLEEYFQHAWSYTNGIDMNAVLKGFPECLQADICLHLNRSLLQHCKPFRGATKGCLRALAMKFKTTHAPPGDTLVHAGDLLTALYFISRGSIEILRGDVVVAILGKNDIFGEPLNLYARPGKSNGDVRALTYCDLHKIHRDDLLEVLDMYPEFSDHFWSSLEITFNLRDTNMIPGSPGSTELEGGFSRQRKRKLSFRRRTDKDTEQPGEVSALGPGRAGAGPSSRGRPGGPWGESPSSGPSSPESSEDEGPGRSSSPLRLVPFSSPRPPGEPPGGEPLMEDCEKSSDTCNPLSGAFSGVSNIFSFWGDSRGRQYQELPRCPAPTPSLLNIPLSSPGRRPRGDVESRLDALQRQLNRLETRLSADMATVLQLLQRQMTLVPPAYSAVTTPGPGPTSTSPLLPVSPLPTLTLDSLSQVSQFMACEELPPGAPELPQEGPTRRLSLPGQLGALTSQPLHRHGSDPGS
# Text: The rapid activation of delayed rectifier outward potassium current (IKr) in humans is mainly mediated by hERG ion channel and participates in human myocardial cell repolarization. Drug blockade of this current will lead to the appearance of QT interval prolongation syndrome in clinical practice, which can easily induce acute arrhythmia and even sudden death.
# in vivo [2] = settings: ICR, mouse, po
# Procedure: On the day of administration, observations were made approximately 0.5, 1, 2, 4, and 6 hours after the first administration. During day 2 to day 6 of the observation period, observations were made twice a day, once in the morning and once in the afternoon.
# Observations included but not limited to: general conditions, behavioral activities, gait and posture, eyes, mouth, nose, gastrointestinal tract, skin hair and urogenital tract.
# Weight data were expressed as mean ±standard deviation. Levene's test and one-way analysis of variance were used for comparison between groups. If there was a difference, Dunnet t test was then used.
# The maximum tolerated dose refers to the dose administered when the animal was dying.
# in vivo [3] = settings: rat, po; for half-life: SD; for AUC(0-t) / Cmax / Tmax: 25 mg/kg
# Procedure: SD rats were used as the test animals.
# Standard curve and preparation and processing of quality control samples:
# Stock solution was diluted with 50% acetonitrile-water to obtain standard working solutions of 0.04, 0.10, 0.20, 0.40, 1.00, 2.00, 4.00 μg/mL, and quality control working solutions of 0.10, 1.00, 3.00 μg/mL. […] 200 μL of acetonitrile (containing 5 ng/mL of the internal standard loratadine) was added. After the vortex oscillation for 3 minutes, the solutions were centrifuged at 15000 rpm at 4° C. for 15 minutes. 100 μL of the supernatant was taken for LC-MS/MS analysis. WinNonlin ® 8.0 was used to calculate the experimental results.
IC50 [1] [nM],IC50 (IRAK4 kinase) [nM],Structure (SMILES),half-life (in vivo [3]; in vivo) [min],AUC(0-t) (in vivo [3]; plasma) [ng·h/mL],Cmax (in vivo [3]; plasma) [ng/mL],Tmax (in vivo [3]; plasma) [h],further results
0.7,0.7,COc1cc2nn(CCS(=N)(=O)c3nccs3)cc2cc1NC(=O)c1cccc(C(F)(F)F)n1 (stereo not drawn) [Compound I-35],–,–,–,–,–
1.4,0.4,N=S(=O)(CCn1cc2cc(NC(=O)c3cnn4cccnc34)c(N3CCOCC3)cc2n1)c1ncccn1 (stereo not drawn) [Compound I-33],–,–,–,–,–
1,0.5,Cc1cc(-c2nc(C(=O)Nc3cc4cn(CCS(=N)(=O)c5ncccn5)nc4cc3C(C)(C)O)co2)ccn1 (stereo not drawn) [Compound I-32],–,–,–,–,–
0.9,0.6,Cc1cc(-c2nc(C(=O)Nc3cc4cn(CCS(=N)(=O)c5ccccc5)nc4cc3N3CCOCC3)co2)ccn1 (stereo not drawn) [Compound I-30],–,–,–,–,–
1.1,0.4,N=S(=O)(CCn1cc2cc(NC(=O)c3cnn4cccnc34)c(N3CCOCC3)cc2n1)c1ccnc2ccccc12 (stereo not drawn) [Compound I-23],–,–,–,–,–
1.1,0.6,Cc1cc(-c2nc(C(=O)Nc3cc4cn(CCS(=N)(=O)c5ccccn5)nc4cc3N3CCC(O)C3)co2)ccn1 (stereo not drawn) [Compound I-20],270,7500,1400,4.9,–
0.7,0.7,COc1cc2nn(CCS(=N)(=O)c3ccccc3)cc2cc1NC(=O)c1coc(-c2ccnc(C)c2)n1 (stereo not drawn) [Compound I-28],–,–,–,–,–
125,–,"COc1cc2nn(CCS(C)(=N)=O)cc2cc1NC(=O)c1cccc(C(F)(F)F)n1 (stereo not drawn) [MY-004-103, reference compound]",84,734,245,1.4,–
1.4,0.4,Cc1cc(-c2nc(C(=O)Nc3cc4cn(CCS(=N)(=O)c5ccncc5)nc4cc3N3CCC(O)C3)co2)ccn1 (stereo not drawn) [Compound I-18],–,–,–,–,–
1.3,0.7,COc1cc2nn(CCS(=N)(=O)c3ccc(F)cc3)cc2cc1NC(=O)c1cccc(C(F)(F)F)n1 (stereo not drawn) [Compound I-27],–,–,–,–,–
0.9,0.8,COc1cc2nn(CCS(=N)(=O)c3ccccn3)cc2cc1NC(=O)c1cccc(C(F)(F)F)n1 (stereo not drawn) [Compound I-19],–,–,–,–,–
1.5,0.5,COc1cc2nn(CCS(=N)(=O)c3ncco3)cc2cc1NC(=O)c1cccc(C(F)(F)F)n1 (stereo not drawn) [Compound I-36],324,8490,1490,5.6,–
0.8,0.3,CC(C)(O)c1cc2nn(CCS(=N)(=O)c3ccccc3)cc2cc1NC(=O)c1cnn2cccnc12 (stereo not drawn) [Compound I-22],–,–,–,–,–
1.2,0.5,CN=S(=O)(CCn1cc2cc(NC(=O)c3cccc(C(F)(F)F)n3)c(OC)cc2n1)c1ccccc1 (stereo not drawn) [Compound I-25],–,–,–,–,–

# Continued, compound first:
Structure (SMILES),IC50 [1] [nM],IC50 (IRAK4 kinase) [nM],half-life (in vivo [3]; in vivo) [min],AUC(0-t) (in vivo [3]; plasma) [ng·h/mL],Cmax (in vivo [3]; plasma) [ng/mL],Tmax (in vivo [3]; plasma) [h],further results
COc1cc2nn(CCS(=N)(=O)c3ccccc3)cc2cc1NC(=O)c1cccc(C(F)(F)F)n1 (stereo not drawn) [Compound I-1],0.5,0.3,300,8330,1600,6.2,Inhibition rate (%) of hERG current (hERG potassium channel; 5 μM): -1.0%; Inhibition rate (%) of hERG current (hERG potassium channel; 50 μM): 2.3%; Inhibition rate (%) of hERG current (hERG potassium channel; 500 μM): 15.6%; MTD at 6 days (in vivo [2]): > 2000 mg/kg
Cc1cc2nn(CCS(=N)(=O)c3ccccc3)cc2cc1NC(=O)c1cccc(C(F)(F)F)n1 (stereo not drawn) [Compound I-13],1.1,0.4,–,–,–,–,–
Cc1cc(-c2nc(C(=O)Nc3cc4cn(CCS(=N)(=O)c5ccncc5)nc4cc3N3CCOCC3)co2)ccn1 (stereo not drawn) [Compound I-17],1.2,0.5,324,8200,1430,5.8,–
N=S(=O)(CCn1cc2cc(NC(=O)c3cccc(C(F)(F)F)n3)c(N3CCC(O)C3)cc2n1)c1ccnc2ccccc12 (stereo not drawn) [Compound I-12],0.6,0.3,–,–,–,–,–
COc1cc2nn(CCS(=N)(=O)c3ccncc3)cc2cc1NC(=O)c1coc(-c2ccnc(C)c2)n1 (stereo not drawn) [Compound I-15],0.9,0.7,360,8230,1380,5.9,–
"CC(C)(O)CCn1cc2cc(NC(=O)c3cccc(C(F)(F)F)n3)c(C(C)(C)O)cc2n1 [BAY-1830839, reference compound]",–,–,–,–,–,–,Cmax (in vivo [3]; in vivo): 223 ng/mL
N=S(=O)(CCn1cc2cc(NC(=O)c3cccc(C(F)(F)F)n3)c(N3CCOCC3)cc2n1)c1ccccc1 (stereo not drawn) [Compound I-3],0.6,0.6,–,–,–,–,–
N=S(=O)(CCn1cc2cc(NC(=O)c3cccc(C(F)(F)F)n3)c(N3CCC(O)C3)cc2n1)c1ccncc1 (stereo not drawn) [Compound I-8],0.9,0.6,–,–,–,–,–
CC(C)(O)c1cc2nn(CCS(=N)(=O)c3ccccc3)cc2cc1NC(=O)c1cccc(C(F)(F)F)n1 (stereo not drawn) [Compound I-2],0.3,0.5,330,8100,1580,6.5,Inhibition rate (%) of hERG current (hERG potassium channel; 5 μM): -0.5%; Inhibition rate (%) of hERG current (hERG potassium channel; 50 μM): 0.7%; Inhibition rate (%) of hERG current (hERG potassium channel; 500 μM): 12.3%; MTD at 6 days (in vivo [2]): > 2000 mg/kg
CC(C)(O)c1cc2nn(CCS(=N)(=O)c3ccncc3)cc2cc1NC(=O)c1cccc(C(F)(F)F)n1 (stereo not drawn) [Compound I-6],0.6,0.2,–,–,–,–,–
COc1cc2nn(CCS(=N)(=O)c3ccncc3)cc2cc1NC(=O)c1cccc(C(F)(F)F)n1 (stereo not drawn) [Compound I-5],0.7,0.4,306,8280,1400,6.2,Inhibition rate (%) of hERG current (hERG potassium channel; 5 μM): 0.0%; Inhibition rate (%) of hERG current (hERG potassium channel; 50 μM): -1.0%; Inhibition rate (%) of hERG current (hERG potassium channel; 500 μM): 13.4%; MTD at 6 days (in vivo [2]): > 2000 mg/kg
COc1cc2nn(CCS(=N)(=O)c3ccnc4ccccc34)cc2cc1NC(=O)c1cccc(C(F)(F)F)n1 (stereo not drawn) [Compound I-9],1,0.2,288,8520,1420,5.5,–
N=S(=O)(CCn1cc2cc(NC(=O)c3cccc(C(F)(F)F)n3)c(N3CCOCC3)cc2n1)c1ccncc1 (stereo not drawn) [Compound I-7],1.2,0.5,300,8630,1500,5,MTD at 6 days (in vivo [2]): > 2000 mg/kg
Cc1cc(-c2nc(C(=O)Nc3cc4cn(CCS(=N)(=O)c5ccncc5)nc4cc3C(C)(C)O)co2)ccn1 (stereo not drawn) [Compound I-16],0.9,0.5,378,9230,1360,6,MTD at 6 days (in vivo [2]): > 2000 mg/kg
"CC(C)(O)c1cc2nn(CCS(C)(=N)=O)cc2cc1NC(=O)c1cccc(C(F)(F)F)n1 (stereo not drawn) [MY-004-102, reference compound]",169,–,84,700,235,1.3,IC50 (hERG potassium channel): ~50 µM; MTD at 6 days (in vivo [2]): 750 mg/kg
N=S(=O)(CCn1cc2cc(NC(=O)c3cnn4cccnc34)c(N3CCC(O)C3)cc2n1)c1ccccn1 (stereo not drawn) [Compound I-24],0.8,0.8,330,8900,1420,6.2,MTD at 6 days (in vivo [2]): > 2000 mg/kg
N=S(=O)(CCn1cc2cc(NC(=O)c3cccc(C(F)(F)F)n3)c(N3CCC(O)C3)cc2n1)c1ccccc1 (stereo not drawn) [Compound I-4],1.3,0.3,282,8530,1500,6,–
N=S(=O)(CCn1cc2cc(NC(=O)c3cccc(C(F)(F)F)n3)c(N3CCOCC3)cc2n1)c1ccnc2ccccc12 (stereo not drawn) [Compound I-11],0.8,0.5,–,–,–,–,–
"CC(C)(O)c1cc2nn(CCS(C)(=O)=O)cc2cc1NC(=O)c1cccc(C(F)(F)F)n1 [BAY-1834845, reference compound]",–,–,–,–,–,–,Cmax (in vivo [3]; in vivo): 201 ng/mL
